Several values for one entry are separate records, joined by “and”; a condition that tells them apart may be missing. Identical values can stand only once. Results filed as inconclusive are left out.
Tested on: nude mice, HT29 intrarenal xenograft, tumor weight T/C
Assay: NCI In Vivo Anticancer Drug Screen. Data for tumor model HT29;CX-1 Human Adenocarcinoma (MER+) (intrarenal inoculation) in NU/NU Swiss (nude) mice
Settings: endpoint: mean tumor weight change, higher = larger tumour
In short: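 Readout: treated/vehicle-control ratio of the measured endpoint (tumor size or survival) in transplanted-tumor mice.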

[1] = dose: 300.0 mg/kg/injection, schedule: Q04DX004 (sc), vehicle: Klucel (hydroxypropylcellulose) (HPC)
[2] = dose: 600.0 mg/kg/injection, schedule: Q04DX004 (sc), vehicle: Klucel (hydroxypropylcellulose) (HPC)
[3] = dose: 100.0 mg/kg/injection, schedule: Q01DX010 (sc), vehicle: saline with Tween-80
[4] = dose: 300.0 mg/kg/injection, schedule: Q04DX004 (sc), vehicle: saline with Tween-80
[5] = dose: 600.0 mg/kg/injection, schedule: Q04DX004 (sc), vehicle: saline with Tween-80
[6] = dose: 1200.0 mg/kg/injection, schedule: Q04DX004 (sc), vehicle: saline with Tween-80
[7] = dose: 200.0 mg/kg/injection, schedule: Q04DX004 (sc), vehicle: saline with Tween-80
[8] = dose: 400.0 mg/kg/injection, schedule: Q04DX004 (sc), vehicle: saline with Tween-80
[9] = dose: 800.0 mg/kg/injection, schedule: Q04DX004 (sc), vehicle: saline with Tween-80

Cc1cc(Nc2ccc3c(c2)OCO3)c2cc3c(cc2n1)OCO3
T/C [1]: 79 % of control | T/C [2]: 198 % of control

c1cnc2ncncc2n1
T/C (dose: 25.0 mg/kg/injection, schedule: Q01DX010 (sc), vehicle: saline with Tween-80): 62 % of control | T/C (dose: 50.0 mg/kg/injection, schedule: Q01DX010 (sc), vehicle: saline with Tween-80): 70 % of control | T/C [3]: 28 % of control

[I][Hg][CH2]C1COC([CH2][Hg][I])CO1 (stereo not given)
T/C [4]: 54 % of control | T/C [5]: 55 % of control | T/C [6]: 57 % of control | T/C (dose: 2400.0 mg/kg/injection, schedule: Q04DX004 (sc), vehicle: saline with Tween-80): 32 % of control

O=c1ssc(=Nc2ccccc2)n1-c1ccccc1
T/C [1]: 88 % of control | T/C [2]: 75 % of control | T/C (dose: 1200.0 mg/kg/injection, schedule: Q04DX004 (sc), vehicle: Klucel (hydroxypropylcellulose) (HPC)): 98 % of control | T/C (dose: 2400.0 mg/kg/injection, schedule: Q04DX004 (sc), vehicle: Klucel (hydroxypropylcellulose) (HPC)): 189 % of control

COc1ccc(C(=O)c2no[n+]([O-])c2C(=O)c2ccc(OC)cc2)cc1
T/C [7]: 182 % of control | T/C [8]: 117 % of control | T/C [9]: 71 % of control | T/C (dose: 1600.0 mg/kg/injection, schedule: Q04DX004 (sc), vehicle: saline with Tween-80): 83 % of control

CCOC(=O)C(CC(C)C)NC(=O)C(Cc1ccc(N(CCCl)CCCl)cc1)NC(C)=O (stereo not given)
T/C (dose: 12.5 mg/kg/injection, schedule: Q01DX010 (sc), vehicle: saline with Tween-80): 66 % of control and 87 % of control | T/C [8]: 62 % of control | T/C [9]: 32 % of control | T/C [6]: 29 % of control

Clc1ccc(CN2COc3c(ccc4cccnc34)C2)cc1Cl
T/C [3]: 73 % of control | T/C (dose: 400.0 mg/kg/injection, schedule: Q01DX010 (sc), vehicle: saline with Tween-80): 60 % of control and 72 % of control

Cc1c2ccncc2c(C)c2c1[nH]c1ccccc12
T/C (dose: 12.5 mg/kg/injection, schedule: Q01DX010 (sc), vehicle: saline): 70 % of control | T/C (dose: 25.0 mg/kg/injection, schedule: Q01DX010 (sc), vehicle: saline): 47 % of control

CCCC(=O)O
T/C (dose: 100.0 mg/kg/injection, schedule: Q01DX010 (sc), vehicle: saline): 69 % of control | T/C (dose: 200.0 mg/kg/injection, schedule: Q01DX010 (sc), vehicle: saline): 65 % of control | T/C (dose: 400.0 mg/kg/injection, schedule: Q01DX010 (sc), vehicle: saline): 110 % of control | T/C (dose: 800.0 mg/kg/injection, schedule: Q01DX010 (sc), vehicle: saline): 79 % of control

COc1cccc2c1C(=O)c1c(O)c3c(c(O)c1C2=O)C[C@@](O)(C(C)=O)C[C@@H]3OC1CC(N)C(O)C(C)O1 (stereo not given in full)
T/C (dose: 1.0 mg/kg/injection, schedule: Q01DX010 (sc), vehicle: saline): 159 % of control

C[CH2][Pb]([CH2]C)([CH2]C)[O]C(=O)COc1ccccc1
T/C (dose: 4.5 mg/kg/injection, schedule: Q04DX004 (sc), vehicle: saline with Tween-80): 100 % of control | T/C (dose: 9.0 mg/kg/injection, schedule: Q04DX004 (sc), vehicle: saline with Tween-80): 114 % of control | T/C (dose: 18.0 mg/kg/injection, schedule: Q04DX004 (sc), vehicle: saline with Tween-80): 65 % of control

Nc1nc2ccc(NCc3ccc(C(=O)NC(CCC(=O)O)C(=O)O)cc3)cc2c(=O)[nH]1 (stereo not given)
T/C (dose: 50.0 mg/kg/injection, schedule: Q04DX004 (sc), vehicle: saline with Tween-80): 36 % of control | T/C (dose: 100.0 mg/kg/injection, schedule: Q04DX004 (sc), vehicle: saline with Tween-80): 46 % of control and 50 % of control | T/C [7]: 16 % of control and 29 % of control

NC(=S)N/N=C/c1ccc(OC(=O)COc2ccccc2)cn1
T/C (dose: 150.0 mg/kg/injection, schedule: Q04DX004 (sc), vehicle: saline with Tween-80): 102 % of control | T/C [4]: 94 % of control | T/C [5]: 155 % of control | T/C [6]: 38 % of control
